Test results taken from article PMC3726784, “Synthesis, Structure and Antibacterial Activity of Potent DNA Gyrase Inhibitors: N′-Benzoyl-3-(4-Bromophenyl)-1H-Pyrazole-5-Carbohydrazide Derivatives” (PLoS ONE, 2013).
In brackets after ≈: the same amount, converted by molar mass.

Tests used:
[1] = tested on: Bacillus subtilis ATCC 6633; assay: In vitro antibacterial assay (MIC, MTT colorimetric method); assay type: cell-based; conditions: B. subtilis ATCC 6633, MH medium, 37°C; for MIC: Bacillus subtilis, ATCC6633, 24 h, read-out: Minimum inhibitory concentrations, B. subtilis
Description: (§1) The activities of synthesized compounds were tested against Bacillus subtilis ATCC 6633, Escherichia coli ATCC 35218, Pseudomonas aeruginosa ATCC 27853 and Staphylococcus aureus ATCC 6538 which may be causal agents of some serious infections in humans using MH medium (Mueller-Hinton medium: casein hydrolysate 17.5 g, soluble starch 1.5 g, beef extract 1000 mL). Also included are the activities of reference compounds kanamycin.
(§2) The antibacterial activity of the synthesized compounds was tested against B. subtilis, E. coli, P. aeruginosa and S. aureus using MH medium (Mueller-Hinton medium: casein hydrolysate 17.5 g, soluble starch 1.5 g, beef extract 1000 mL). The MICs (minimum inhibitory concentrations) of the test compounds were determined by a colorimetric method using the dye MTT (3-(4,5-dimethylth-iazol-2-yl)-2,5-diphenyl tetrazoliumbromide). A stock solution of the synthesized compound (100 µg/mL) in DMSO was prepared and graded quantities of the test compounds were incorporated in specified quantity of sterilized liquid MH medium. A specified quantity of the medium containing the compound was poured into microtitration plates. Suspension of the microorganism was prepared to contain approximately 10^5 cfu/mL and applied to microtitration plates with serially diluted compounds in DMSO to be tested and incubated at 37°C for 24 h. After the MICs were visually determined on each of the microtitration plates, 50 µL of PBS (phosphate buffered saline 0.01 mol/L, pH 7.4, Na2HPO4·12H2O 2.9 g, KH2PO4 0.2 g, NaCl 8.0 g, KCl 0.2 g, distilled water 1000 mL) containing 2 mg of MTT/mL was added to each well. Incubation was continued at room temperature for 4–5 h. The content of each well was removed, and 100 µL of isopropanol containing 5% 1 mol/L HCl was added to extract the dye. After 12 h of incubation at room temperature, the optical density (OD) was measured with a microplate reader at 550 nm.

[2] = tested on: Staphylococcus aureus ATCC 6538; assay: as above; assay type: cell-based; conditions: S. aureus ATCC 6538, MH medium, 37°C, 24 h; for MIC: Staphylococcus aureus, ATCC6538, read-out: Minimum inhibitory concentrations, S. aureus
Description: as §1, §2

[3] = tested on: Pseudomonas aeruginosa ATCC 27853; assay: as above; assay type: cell-based; conditions: P. aeruginosa ATCC 27853, MH medium, 37°C, 24 h; for MIC: Pseudomonas aeruginosa, ATCC27853, read-out: Minimum inhibitory concentrations, P.aeruginosa
Description: as §1, §2

[4] = tested on: Escherichia coli ATCC 35218; assay: as above; assay type: cell-based; conditions: E. coli ATCC 35218, MH medium, 37°C, 24 h; for MIC: Escherichia coli, ATCC35218, read-out: Minimum inhibitory concentrations, E. coli
Description: as §1, §2

S. aureus DNA gyrase = target: T1, S. aureus DNA gyrase (Staphylococcus aureus, UniProt P0A0K8); assay: biochemical; conditions: enzyme purified from S. aureus, supercoiling
T1 construct: purified by the F. Blanche [25] from a crude extract of S. aureus; endogenous in cells
Excerpt: (§3) To elucidate the mechanism by which the pyrazole derivatives induce antibacterial activity, the inhibitory activities of selected compounds were examined against DNA gyrase isolated from B. subtilis and S. aureus.
The S. aureus DNA gyrase were purified by the F. Blanche from a crude extract of S. aureus and cultivated with medium B, which was composed of 10 g of polypeptone, 2 g of yeast extract, 8 g of Na2HPO4, 2 g of KH2PO4, 1.2 g of (NH4)2SO4, 0.2 g of MgSO4, 4 g of glucose perliter of distilled water. Supercoiling and decatenation were performed according to F. B lanche.

B. subtilis DNA gyrase = B. subtilis DNA gyrase (Bacillus subtilis, UniProt P05652); assay: biochemical
Description: as §3
The B. subtilis DNA gyrase were purified by the methods of E. Orr.: Cells were suspended in an equal volume of 25 mM HEPES-KOH (pH 8.0)-100 mM KCl and stored frozen at −70°C. The frozen cell suspension was thawed and diluted with an equal volume of 25 mM HEPES-KOH (pH 8.0)-0.4 M sucrose-20 mM magnesium acetate-1 mM dithiothreitol-5 mM PMSF. All operations were performed at 0–4°C. Lysozyme was added to a final concentration, and the mixture was incubated for 2.5 h. One-third volume of 2 M KCl-1.5% Brij was added, and the incubation was continued for 15 min. The lysate was then centrifuged for 90 min intirotor. The supernatant was adjusted to a KCl concentration of 0.2 M by dilution with 25 mM HEPES-KOH (pH 8.0)-1 mM dithiothreitol-1mMEDTA-0.5 mM pmsf-10% ethylene glycol and applied to a column. The column was washed with starting buffer and eluted successively with buffer containing 20 mM ATP-25 mM magnesium acetate-0.2 M KCI, buffer (2 M KCI), and 5 M urea in buffer (0.2 M KCl).Protein-containing fractions were dialyzed against buffer (0.05 MKCI). Supercoiling and decatenation were carried out by the F. Blanche method.

T1 sequence (P0A0K8 whole entry): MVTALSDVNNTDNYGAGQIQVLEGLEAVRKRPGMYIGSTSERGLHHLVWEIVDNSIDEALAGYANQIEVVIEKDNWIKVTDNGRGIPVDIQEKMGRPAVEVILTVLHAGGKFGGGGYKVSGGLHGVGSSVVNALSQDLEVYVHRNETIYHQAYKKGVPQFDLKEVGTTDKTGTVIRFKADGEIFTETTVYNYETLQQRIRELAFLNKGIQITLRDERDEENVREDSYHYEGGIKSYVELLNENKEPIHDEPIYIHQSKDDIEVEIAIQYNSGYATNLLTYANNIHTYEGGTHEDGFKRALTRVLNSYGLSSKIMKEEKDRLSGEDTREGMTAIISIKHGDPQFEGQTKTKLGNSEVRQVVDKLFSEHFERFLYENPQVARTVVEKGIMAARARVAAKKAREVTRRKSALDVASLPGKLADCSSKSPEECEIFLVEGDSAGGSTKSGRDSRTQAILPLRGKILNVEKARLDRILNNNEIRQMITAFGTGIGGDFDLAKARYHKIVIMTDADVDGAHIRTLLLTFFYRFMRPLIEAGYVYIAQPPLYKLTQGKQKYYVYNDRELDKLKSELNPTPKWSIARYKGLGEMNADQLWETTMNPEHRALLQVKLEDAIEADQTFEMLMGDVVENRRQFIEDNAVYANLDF
T1 sequence (P20831 whole entry partner): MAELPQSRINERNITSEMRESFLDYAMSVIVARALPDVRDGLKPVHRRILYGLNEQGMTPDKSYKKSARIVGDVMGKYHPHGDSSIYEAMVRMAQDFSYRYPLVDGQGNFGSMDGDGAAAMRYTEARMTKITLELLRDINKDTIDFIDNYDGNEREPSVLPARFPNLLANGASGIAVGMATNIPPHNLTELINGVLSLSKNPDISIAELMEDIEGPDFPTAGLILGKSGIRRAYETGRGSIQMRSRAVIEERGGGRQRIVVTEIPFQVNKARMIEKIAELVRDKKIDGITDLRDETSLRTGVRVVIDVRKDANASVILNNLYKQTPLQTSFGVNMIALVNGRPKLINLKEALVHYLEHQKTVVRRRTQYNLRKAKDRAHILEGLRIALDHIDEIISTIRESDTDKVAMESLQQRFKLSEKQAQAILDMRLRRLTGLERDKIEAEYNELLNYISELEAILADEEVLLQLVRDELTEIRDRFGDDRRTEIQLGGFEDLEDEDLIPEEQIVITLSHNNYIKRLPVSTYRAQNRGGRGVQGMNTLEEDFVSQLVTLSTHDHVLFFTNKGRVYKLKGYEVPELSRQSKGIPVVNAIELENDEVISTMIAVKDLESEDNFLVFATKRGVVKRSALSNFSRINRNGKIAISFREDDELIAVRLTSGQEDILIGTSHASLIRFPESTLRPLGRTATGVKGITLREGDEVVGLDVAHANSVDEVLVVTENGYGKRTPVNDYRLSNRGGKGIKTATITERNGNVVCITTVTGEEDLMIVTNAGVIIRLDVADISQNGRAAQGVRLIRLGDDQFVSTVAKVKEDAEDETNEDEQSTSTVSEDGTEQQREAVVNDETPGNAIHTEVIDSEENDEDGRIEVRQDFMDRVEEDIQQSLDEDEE
Chain of B. subtilis DNA gyrase (P05652 whole entry): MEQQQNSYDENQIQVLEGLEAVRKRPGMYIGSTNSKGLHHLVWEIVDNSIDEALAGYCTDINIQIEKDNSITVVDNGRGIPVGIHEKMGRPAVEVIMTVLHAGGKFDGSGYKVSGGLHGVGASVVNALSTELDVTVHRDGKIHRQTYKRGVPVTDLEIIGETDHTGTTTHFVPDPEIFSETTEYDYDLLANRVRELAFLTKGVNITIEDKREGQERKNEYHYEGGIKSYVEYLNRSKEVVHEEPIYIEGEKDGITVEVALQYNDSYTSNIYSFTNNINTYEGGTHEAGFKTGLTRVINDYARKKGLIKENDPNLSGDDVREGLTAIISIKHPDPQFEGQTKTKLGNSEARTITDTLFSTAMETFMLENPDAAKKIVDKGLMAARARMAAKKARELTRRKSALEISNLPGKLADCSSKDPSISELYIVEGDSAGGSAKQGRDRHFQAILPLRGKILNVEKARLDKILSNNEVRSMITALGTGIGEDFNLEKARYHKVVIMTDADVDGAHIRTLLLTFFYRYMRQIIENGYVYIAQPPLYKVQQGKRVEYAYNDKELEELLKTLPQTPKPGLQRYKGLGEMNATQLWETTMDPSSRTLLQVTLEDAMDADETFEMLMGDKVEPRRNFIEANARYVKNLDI
Chain of B. subtilis DNA gyrase (P05653 whole entry, further chain): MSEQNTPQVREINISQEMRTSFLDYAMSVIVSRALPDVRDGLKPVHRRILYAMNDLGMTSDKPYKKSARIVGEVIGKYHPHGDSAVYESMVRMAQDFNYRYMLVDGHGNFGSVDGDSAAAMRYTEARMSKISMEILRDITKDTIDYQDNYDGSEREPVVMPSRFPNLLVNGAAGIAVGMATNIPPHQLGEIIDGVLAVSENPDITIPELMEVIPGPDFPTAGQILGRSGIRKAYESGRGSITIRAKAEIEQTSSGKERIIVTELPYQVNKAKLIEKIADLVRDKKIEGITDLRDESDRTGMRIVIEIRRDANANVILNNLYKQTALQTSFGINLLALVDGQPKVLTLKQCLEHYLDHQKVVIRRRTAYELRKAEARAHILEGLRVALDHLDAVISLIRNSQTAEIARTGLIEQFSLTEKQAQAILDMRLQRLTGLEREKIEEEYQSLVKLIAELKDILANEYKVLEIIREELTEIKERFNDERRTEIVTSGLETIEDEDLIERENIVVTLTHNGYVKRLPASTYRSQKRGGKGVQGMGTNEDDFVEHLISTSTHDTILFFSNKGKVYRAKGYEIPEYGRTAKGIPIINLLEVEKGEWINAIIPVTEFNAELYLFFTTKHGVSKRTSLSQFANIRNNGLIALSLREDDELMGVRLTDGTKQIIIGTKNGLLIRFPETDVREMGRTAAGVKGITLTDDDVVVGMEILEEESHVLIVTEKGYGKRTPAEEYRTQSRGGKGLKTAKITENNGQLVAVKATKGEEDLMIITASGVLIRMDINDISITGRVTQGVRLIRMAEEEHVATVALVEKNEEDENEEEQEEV

Row | Compound | MIC [1] | MIC [2] | MIC [3] | MIC [4] | melting point | IC50 (S. aureus DNA gyrase) | IC50 (B. subtilis DNA gyrase) | Minimum inhibitory concentrations, B. subtilis ([1]; 24 h) | Minimum inhibitory concentrations, S. aureus [2] | Minimum inhibitory concentrations, P.aeruginosa [3] | Minimum inhibitory concentrations, E. coli [4]
1 | O=C(NNC(=O)c1cc(-c2ccc(Br)cc2)n[nH]1)c1ccc(F)cc1 [3a, 3-(4-Bromophenyl)-N'-(4-fluorobenzoyl)-1H-pyrazole-5-carbohydrazide] | 12.5 µg/mL (≈ 31.1 µM) | 15 µg/mL (≈ 37.2 µM) | 50 µg/mL (≈ 124 µM) | > 50 µg/mL | 284 to 287 °C | – | – | – | – | – | –
2 | O=C(NNC(=O)c1cc(-c2ccc(Br)cc2)n[nH]1)c1ccc(Cl)cc1 [3b, 3-(4-Bromophenyl)-N'-(4-chlorobenzoyl)-1H-pyrazole-5-carbohydrazide] | 17.1 µg/mL (≈ 40.8 µM) | 15 µg/mL (≈ 35.7 µM) | 50 µg/mL (≈ 119 µM) | > 50 µg/mL | 280 to 283 °C | – | – | – | – | – | –
3 | O=C(NNC(=O)c1cc(-c2ccc(Br)cc2)n[nH]1)c1ccc(Br)cc1 [3c, N'-(4-Bromobenzoyl)-3-(4-bromophenyl)-1H-pyrazole-5-carbohydrazide] | 10.2 µg/mL (≈ 22 µM) | 13.8 µg/mL (≈ 29.7 µM) | 50 µg/mL (≈ 108 µM) | > 50 µg/mL | 297 to 298 °C | – | – | – | – | – | –
4 | Cc1ccc(C(=O)NNC(=O)c2cc(-c3ccc(Br)cc3)n[nH]2)cc1 [3d, 3-(4-Bromophenyl)-N'-(4-methylbenzoyl)-1H-pyrazole-5-carbohydrazide] | – | 3.66 µg/mL (≈ 9.17 µM) | 12.5 µg/mL (≈ 31.3 µM) | 50 µg/mL (≈ 125 µM) | 270 to 272 °C | 3.76 µM | 6.51 µM | – | – | – | –
5 | COc1ccc(C(=O)NNC(=O)c2cc(-c3ccc(Br)cc3)n[nH]2)cc1 [3e, 3-(4-Bromophenyl)-N'-(4-methoxybenzoyl)-1H-pyrazole-5-carbohydrazide] | 10.1 µg/mL (≈ 24.4 µM) | 6.68 µg/mL (≈ 16.1 µM) | 12.5 µg/mL (≈ 30.1 µM) | 50 µg/mL (≈ 120 µM) | 281 to 282 °C | 8.19 µM | 29.5 µM | – | – | – | –
6 | O=C(NNC(=O)c1cc(-c2ccc(Br)cc2)n[nH]1)c1ccc([N+](=O)[O-])cc1 [3f, 3-(4-Bromophenyl)-N'-(4-nitrobenzoyl)-1H-pyrazole-5-carbohydrazide] | 25 µg/mL (≈ 58.1 µM) | 18 µg/mL (≈ 41.9 µM) | > 50 µg/mL | > 50 µg/mL | 255 to 257 °C | – | – | – | – | – | –
7 | O=C(NNC(=O)c1cc(-c2ccc(Br)cc2)n[nH]1)c1cccc(F)c1 [3g, 3-(4-Bromophenyl)-N'-(3-fluorobenzoyl)-1H-pyrazole-5-carbohydrazide] | 25 µg/mL (≈ 62 µM) | 13 µg/mL (≈ 32.2 µM) | 50 µg/mL (≈ 124 µM) | > 50 µg/mL | 278 to 280 °C | – | – | – | – | – | –
8 | O=C(NNC(=O)c1cc(-c2ccc(Br)cc2)n[nH]1)c1cccc(Cl)c1 [3h, 3-(4-Bromophenyl)-N'-(3-chlorobenzoyl)-1H-pyrazole-5-carbohydrazide] | 6.25 µg/mL (≈ 14.9 µM) | 12.6 µg/mL (≈ 29.9 µM) | 50 µg/mL (≈ 119 µM) | > 50 µg/mL | 246 to 248 °C | – | – | – | – | – | –
9 | O=C(NNC(=O)c1cc(-c2cccc(Br)c2)n[nH]1)c1ccc(Br)cc1 [3i, N'-(4-Bromobenzoyl)-3-(3-bromophenyl)-1H-pyrazole-5-carbohydrazide] | 12.6 µg/mL (≈ 27.1 µM) | 12.1 µg/mL (≈ 26.1 µM) | 50 µg/mL (≈ 108 µM) | > 50 µg/mL | 229 to 231 °C | – | – | – | – | – | –
10 | Cc1cccc(C(=O)NNC(=O)c2cc(-c3ccc(Br)cc3)n[nH]2)c1 [3j, 3-(4-Bromophenyl)-N'-(3-methylbenzoyl)-1H-pyrazole-5-carbohydrazide] | – | 1.12 µg/mL (≈ 2.81 µM) | 12.5 µg/mL (≈ 31.3 µM) | 50 µg/mL (≈ 125 µM) | 287 to 288 °C | 0.326 µM | 8.14 µM | – | – | – | –
11 | COc1cccc(C(=O)NNC(=O)c2cc(-c3ccc(Br)cc3)n[nH]2)c1 [3k, 3-(4-Bromophenyl)-N'-(3-methoxybenzoyl)-1H-pyrazole-5-carbohydrazide] | – | 0.78 µg/mL (≈ 1.88 µM) | 12.5 µg/mL (≈ 30.1 µM) | 50 µg/mL (≈ 120 µM) | 251 to 253 °C | 0.361 µM | 0.602 µM | – | – | – | –
12 | O=C(NNC(=O)c1cc(-c2ccc(Br)cc2)n[nH]1)c1cccc([N+](=O)[O-])c1 [3l, 3-(4-Bromophenyl)-N'-(3-nitrobenzoyl)-1H-pyrazole-5-carbohydrazide] | 10.8 µg/mL (≈ 25.1 µM) | 10.8 µg/mL (≈ 25.1 µM) | 50 µg/mL (≈ 116 µM) | > 50 µg/mL | 275 to 276 °C | – | – | – | – | – | –
13 | O=C(NNC(=O)c1ccccc1F)c1cc(-c2ccc(Br)cc2)n[nH]1 [3m, 3-(4-Bromophenyl)-N'-(2-fluorobenzoyl)-1H-pyrazole-5-carbohydrazide] | 25 µg/mL (≈ 62 µM) | 22.1 µg/mL (≈ 54.8 µM) | > 50 µg/mL | > 50 µg/mL | 297 to 298 °C | – | – | – | – | – | –
14 | O=C(NNC(=O)c1ccccc1Cl)c1cc(-c2ccc(Br)cc2)n[nH]1 [3n, 3-(4-Bromophenyl)-N'-(2-chlorobenzoyl)-1H-pyrazole-5-carbohydrazide] | 12.2 µg/mL (≈ 29.2 µM) | 17 µg/mL (≈ 40.4 µM) | > 50 µg/mL | > 50 µg/mL | 280 to 281 °C | – | – | – | – | – | –
15 | O=C(NNC(=O)c1cc(-c2ccccc2Br)n[nH]1)c1ccc(Br)cc1 [3o, N'-(4-Bromobenzoyl)-3-(2-bromophenyl)-1H-pyrazole-5-carbohydrazide] | 23.1 µg/mL (≈ 49.8 µM) | 21 µg/mL (≈ 45.2 µM) | > 50 µg/mL | > 50 µg/mL | 281 to 283 °C | – | – | – | – | – | –
16 | Cc1ccccc1C(=O)NNC(=O)c1cc(-c2ccc(Br)cc2)n[nH]1 [3p, 3-(4-Bromophenyl)-N'-(2-methylbenzoyl)-1H-pyrazole-5-carbohydrazide] | 12.2 µg/mL (≈ 30.4 µM) | 8.08 µg/mL (≈ 20.2 µM) | 12.5 µg/mL (≈ 31.3 µM) | 50 µg/mL (≈ 125 µM) | 292 to 294 °C | 13 µM | 1.25 µM | – | – | – | –
17 | COc1ccccc1C(=O)NNC(=O)c1cc(-c2ccc(Br)cc2)n[nH]1 [3q, 3-(4-Bromophenyl)-N'-(2-methoxybenzoyl)-1H-pyrazole-5-carbohydrazide] | 20.6 µg/mL (≈ 49.6 µM) | 18.7 µg/mL (≈ 45.1 µM) | > 50 µg/mL | > 50 µg/mL | 287 to 290 °C | – | – | – | – | – | –
18 | O=C(NNC(=O)c1ccccc1[N+](=O)[O-])c1cc(-c2ccc(Br)cc2)n[nH]1 [3r, 3-(4-Bromophenyl)-N'-(2-nitrobenzoyl)-1H-pyrazole-5-carbohydrazide] | 50 µg/mL (≈ 116 µM) | 25 µg/mL (≈ 58.1 µM) | > 50 µg/mL | > 50 µg/mL | 266 to 267 °C | – | – | – | – | – | –
19 | O=C(NNC(=O)c1cc(-c2ccc(Br)cc2)n[nH]1)c1ccccc1 [3s, N'-Benzoyl-3-(4-bromophenyl)-1H-pyrazole-5-carbohydrazide] | 10.6 µg/mL (≈ 27.4 µM) | 10.6 µg/mL (≈ 27.4 µM) | 12.5 µg/mL (≈ 32.4 µM) | 12.5 µg/mL (≈ 32.4 µM) | 288 to 290 °C | 8.44 µM | 2.6 µM | – | – | – | –
20 | Penicillin [reference compound] | – | – | – | – | – | – | – | 1.56 µg/mL | 1.56 µg/mL | 6.25 µg/mL | 6.25 µg/mL
